# Experimental data: patent publication US8859490B2, “Peptide nucleic acid monomers and oligomers” (Nanyang Technological University, priority 2008, dated 2014)
# “Also recorded” adds a separate entry of the source.
# System: Hela cells
# Test: Cell uptake of FAM-labelled oligomers, fluorescence confocal microscopy
# Format: cell-based
# Conditions: fluorescein-labelled, 0.5 μM, 24 h, 37° C.
# Procedure: Culture and transfection of Hela cells with fluorescein-labeled aegPNA, AP-PNA, GP-PNA oligomers and Tat peptide were carried out according to previously published protocols (Janowski, B. A., et al., Nature Protocols (2006) 1, 436; Shiraishi, T., &. Nielsen, P. E., Nature Protocols (2006) 1, 633). Hela cells were grown in 75-cm^2 culture flasks at 37° C. in an atmosphere of 5% CO2 in Hyclone DMEM/High Glucose medium without antibiotics and were plated at 100,000 cells per well on 6-well Lab-Tek chambered coverglass slides in DMEM medium and cultured two days before transfection. Oligomer solutions were prepared by diluting a 200 μM stock solution at 1×PBS buffer to 0.5 μM with warmed (37° C.) medium. The cell medium was discarded and cells were washed with 1×PBS buffer followed by incubation with the above prepared oligomers at a concentration of 0.5 μM for 24 h at 37° C. in an atmosphere of 5% CO2. The medium was removed and cells were washed with 1×PBS buffer (2 mL×3) and fixed with […]. The cells were imaged with Olympus IX51 fitted with Cool SNAP^HQ camera and analyzed using Metamorph software (Molecular Devices).
# For the present example the GP-PNA and AP-PNA with the 6-C spacer was chose to examine the cell-uptake activity, since these display the strongest binding affinity when complexed to complementary DNA. Dodecamer aegPNA (Fl-TAGTAGATCACT-Gly-NH2) (SEQ ID NO:1), AP-PNA (Fl-TA^6aGT^6aAG^6aAT^6aCA^6aCT^6a-Gly-NH2) (SEQ ID NO:2), GP-PNA (Fl-TA^6gGT^6gAG^6gAT^6gCA^6gCT^6g-Gly-NH2) (SEQ ID NO:3) oligomers and Tat peptide (Fl-Tyr-Gly-Arg-Lys-Lys-Arg-Arg-Gln-Arg-Arg-Arg-NH2) (SEQ ID NO:4) were synthesized and labeled by fluorescein at the N-terminus. These oligomers were incubated with Hela cells for 24 h at 37° C. and were fixed by paraformaldehyde after PBS (1×) buffer washing. Their uptake properties were determined by fluorescence confocal microscopy. […] To conclude, the guanidino groups pendant from the backbone amide nitrogen confer cell-permeability to the modified PNAs.
row,Substance,cell uptake (fluorescence in cells)
1,Fl-TA^6gGT^6gAG^6gAT^6gCA^6gCT^6g-Gly-NH2 [GP-PNA],clear and strong fluorescence images were detected in almost all cells; also recorded: readily taken up by Hela cells
2,"Fl-TAGTAGATCACT-Gly-NH2 [aegPNA, reference compound]",poor cell uptake property
3,Fl-TA^6aGT^6aAG^6aAT^6aCA^6aCT^6a-Gly-NH2 [AP-PNA],better cell uptake property than the aegPNA; also recorded: moderate enhancement in cell uptake activity compared with aegPNA
